Source: patent publication US8426429B2, “2-amino-quinazoline derivatives useful as inhibitors of β-secretase (BACE)” (Jansssen Pharmaceutica N.V., priority 2004, dated 2013)

Molecular target: T1, β-secretase (BACE) (Homo sapiens, UniProt P56817)
T1 construct: purchased Panvera
Assay: BACE FS1 % Inhibition Assay
Assay type: biochemical
Procedure: The following reagents were used in this assay: sodium acetate, PEG8000 (Sigma), DMSO, HEPES, FS1 substrate [[…]] […] The FS1-substrate stock solution was prepared in DMSO as a 10 mg/mL solution. The FS1-substrate working solution was prepared by diluting the 10 mg/mL stock solution with substrate assay buffer to a final concentration of 300 μg/mL. The β-secretase (BACE) working solution was prepared by diluting a 0.83 mg/mL BACE stock solution with enzyme assay buffer to a final concentration of 4 μg/mL. Test compounds were dissolved in DMSO to 10 mM. […] The screening procedure for this assay was as follows: 15 μL of BACE working solution was pipetted into each well of a 96-well plate. To each well was then pipetted 2 μL of test compound at the selected concentration. Test compound and BACE were then mixed with a pipettor and incubated for 20 min at room temperature. To each well was then added 10 μL of the FS1 substrate working solution. The plates were then incubated for 1 hour at room temperature. […] The procedure for the blank was as follows. 15 μL of assay buffer was pipetted into each well to be used as a blank control. To each well was then added 2 μL of vehicle and 10 μL of FS1-substrate working solution. The plates were then incubated for 1 hour at room temperature. […] The procedure for the positive control was as follows: 15 μL of BACE working solution was pipetted into each well to be used as a positive control. To each well was then pipetted 2 μL of vehicle. Vehicle and BACE were then mixed with a pipettor and incubated for 20 min at room temperature. To each well was then added 10 μL of the FS1 substrate working solution. The plates were then incubated for 1 hour at room temperature. […] For test compounds, % inhibition was determined at each concentration as follows: [formula]

T1 sequence (P56817 46-501): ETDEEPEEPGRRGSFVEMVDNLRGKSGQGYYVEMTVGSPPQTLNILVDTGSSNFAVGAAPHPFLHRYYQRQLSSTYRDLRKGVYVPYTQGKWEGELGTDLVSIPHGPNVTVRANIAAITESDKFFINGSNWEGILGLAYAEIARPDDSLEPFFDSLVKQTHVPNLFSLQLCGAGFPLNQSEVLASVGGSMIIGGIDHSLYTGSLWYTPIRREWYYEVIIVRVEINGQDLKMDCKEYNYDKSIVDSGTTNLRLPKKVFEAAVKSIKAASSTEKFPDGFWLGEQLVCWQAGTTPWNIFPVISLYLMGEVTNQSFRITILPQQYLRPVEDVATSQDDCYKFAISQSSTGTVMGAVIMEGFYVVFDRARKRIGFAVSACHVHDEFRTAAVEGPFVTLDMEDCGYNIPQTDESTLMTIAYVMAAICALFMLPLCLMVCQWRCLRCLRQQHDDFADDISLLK

| SMILES | % Inhibition (FS) (0.3 μM test compound) [%] | % Inhibition (FS) (1 μM test compound) [%] | % Inhibition (FS) (3 μM test compound) [%] | further results |
| --- | --- | --- | --- | --- |
| COc1ccc(-c2ccc3c(c2)CN(C(CCC(=O)N(C)C2CCCCC2)C2CCCCC2)C(N)=N3)cc1 (stereo not shown) [Compound 226] | <30 | <30 | 54 | – |
| CC(C)(C)C(=O)NCCN1Cc2cc(-c3ccccc3Cl)ccc2N=C1N [Compound 653] | 46 | 82 | 101 | – |
| CCOC(=O)C1CCC(N(C)C(=O)CCC(C2CCCCC2)N2Cc3cc(Oc4ccccc4)ccc3N=C2N)CC1 (stereo not shown) [Compound 737] | – | – | – | % Inhibition (FS) (0.3 μM compound, FS1 substrate, 0.3 µM): 22%; % Inhibition (FS) (1 μM compound, FS1 substrate, 1 µM): 34%; % Inhibition (FS) (3 μM compound, FS1 substrate, 3 µM): 97% |
| CCCC(CCCC(=O)N(C)C1CCN(C)CC1)N1Cc2cc(Oc3ccccc3)ccc2N=C1N (stereo not shown) [Compound 106] | – | – | 103 | % Inhibition (FS) (10 μM test compound): 114% |
| NC1=Nc2ccc(Oc3ccccc3)cc2CN1C1CCCCN(C(=O)C23CC4CC(CC(C4)C2)C3)C1 (stereo not shown) [Compound 550] | <30 | <30 | 67 | – |
| CCCC=Cc1ccc2c(c1)CN(CCNC(=O)c1ccc(NC(C)=O)cc1)C(N)=N2 [Compound 592] | <30 | <30 | <30 | – |
| CN(C(=O)c1cccc(CN2Cc3cc(Nc4ccc(C5CCCCC5)cc4)ccc3N=C2N)c1)C1CCCCC1 [Compound 437] | <30 | <30 | 38 | – |
| CN(C(=O)c1cccc(CN2Cc3cc(Oc4cccnc4)ccc3N=C2N)c1)C1CCCCC1 [Compound 230] | <30 | 33 | <30 | – |
| COC(=O)Cc1cccc(CN(C)C(=O)CCC(C2CCCCC2)N2Cc3cc(Oc4ccccc4)ccc3N=C2N)c1 (stereo not shown) [Compound 775] | – | – | – | % Inhibition (FS) (0.3 μM compound, FS1 substrate): <30%; % Inhibition (FS) (1 μM compound, FS1 substrate): 62% |
| NC1=Nc2ccc(-c3ccc4ccccc4c3)cc2CN1CCNC(=O)C1CCCC1 [Compound 664] | – | – | – | % Inhibition (FS) (0.3 μM compound, FS1 substrate): <30%; % Inhibition (FS) (1 μM compound, FS1 substrate): <30%; % Inhibition (FS) (3 μM compound, FS1 substrate): <30% |
| NC1=Nc2ccc(Oc3ccccc3)cc2CN1CC(NC(=O)C1CCCCC1)C1CCCCC1 (stereo not shown) [Compound 637] | <30 | <30 | 73 | – |
| CN(C(=O)c1cccc(CN2Cc3cc(Nc4ccc5c(c4)OCO5)ccc3N=C2N)c1)C1CCCCC1 [Compound 441] | <30 | 29 | 48 | – |
| NC1=Nc2ccc(Oc3ccccc3)cc2CN1CCNC(=O)c1ccc(-c2ccccc2)cc1 [Compound 195] | <30 | <30 | <30 | – |
| CN(C(=O)c1cccc(CN2Cc3cc(Oc4ccccc4S(C)(=O)=O)ccc3N=C2N)c1)C1CCCCC1 [Compound 472] | <30 | <30 | <30 | – |
| COc1cccc(COc2ccc3c(c2)CN(Cc2cccc(C(=O)N(C)C4CCCCC4)c2)C(N)=N3)c1 [Compound 514] | <30 | <30 | <30 | – |
| CCCCC(CC)C(=O)NCCN1Cc2cc(-c3cnc4ccccc4c3)ccc2N=C1N (stereo not shown) [Compound 676] | – | – | – | % Inhibition (FS) (0.3 μM compound, FS1 substrate): 33%; % Inhibition (FS) (1 μM compound, FS1 substrate): <30%; % Inhibition (FS) (3 μM compound, FS1 substrate): 44% |
| CN(C(=O)c1cccc(CN2Cc3cc(-c4ccncc4)ccc3N=C2N)c1)C1CCCCC1 [Compound 168] | <30 | <30 | <30 | – |
